Consider one molecule from article PMC12646670, “Fatty acid transport protein 2 inhibition enhances glucose tolerance through α cell–mediated GLP-1 secretion” (The Journal of Clinical Investigation, 2025).

Each structure is given as a SMILES string.

This test addresses T1, FATP2 (Mus musculus, UniProt O35488).
T1 construct: gene Slc27a2; endogenous full-length FATP2 in native mouse αTC1-6 pancreatic α cell line (ATCC)
The test is described as follows: BODIPY-labelled C18 fatty acid uptake (QBT fluorescence assay). Type of test: cell-based. To be noted: native αTC1-6 cells; 1 h preincubation, 37°C; 2.5 μM BODIPY-C18 fatty acid with 0.2% fatty acid-free albumin; uptake read at 60 s. An excerpt: BODIPY-labelled C18 fatty acid uptake (QBT fluorescence assay) on FATP2 | fatty acid uptake was blocked by the FATP2 inhibitor lipofermata

T1 sequence (O35488 whole entry): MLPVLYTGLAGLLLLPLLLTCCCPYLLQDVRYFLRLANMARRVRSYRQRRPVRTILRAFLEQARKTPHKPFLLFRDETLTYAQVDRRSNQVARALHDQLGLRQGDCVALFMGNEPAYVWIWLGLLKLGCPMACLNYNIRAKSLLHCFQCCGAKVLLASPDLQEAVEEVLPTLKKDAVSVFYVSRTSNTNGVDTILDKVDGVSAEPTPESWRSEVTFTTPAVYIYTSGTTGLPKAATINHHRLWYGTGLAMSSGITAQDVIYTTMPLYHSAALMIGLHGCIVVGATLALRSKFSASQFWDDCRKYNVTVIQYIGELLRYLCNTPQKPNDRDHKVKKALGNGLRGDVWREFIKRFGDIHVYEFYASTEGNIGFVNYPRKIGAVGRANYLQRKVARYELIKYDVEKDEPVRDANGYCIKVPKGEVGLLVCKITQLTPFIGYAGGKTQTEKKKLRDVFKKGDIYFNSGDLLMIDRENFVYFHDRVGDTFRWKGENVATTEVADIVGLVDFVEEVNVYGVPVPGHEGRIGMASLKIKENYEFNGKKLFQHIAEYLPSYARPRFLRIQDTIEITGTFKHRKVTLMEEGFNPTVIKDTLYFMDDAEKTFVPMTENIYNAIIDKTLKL

`O=C1Nc2ccc(Br)cc2C12NN=C(c1ccccc1)S2` (stereo not shown) [lipofermata, 5-bromo-5′-phenylspiro[3H-1,3,4-thiadiazole-2,3′-indoline]-2-1] came in with an IC50 of 5.4 µM.
